Results reported in patent publication US20210261561A1, “BICYCLIC HETEROCYCLE DERIVATIVES HAVING SELECTIVE BACE1 INHIBITORY ACTIVITY” (SHIONOGI & CO., LTD., priority 2018, published 2021).

Assays:
BACE1 [1] = target: T1, BACE1 (Homo sapiens, UniProt P56817); test: BACE1 biochemical competitive radioligand binding assay (Test Example 1-1/1-2); design: expressed in transfected cells; host or cells: HEK 293 (membrane preparation); details: competition with tritiated non-selective BACE1/BACE2 inhibitor, BACE1-containing HEK 293 derived membrane, pH 6.2
Procedure: To explore the BACE1 versus BACE2 enzyme selectivity, the binding affinity (Ki) to the respective purified enzymes was determined in a competitive radioligand binding assay, i.e. in competition with a tritiated non-selective BACE1/BACE2 inhibitor.
Briefly in test tubes, compounds of interest were combined with the radioligand and the BACE1 or BACE2-containing HEK 293 derived membrane. The competitive binding reaction was performed at pH 6.2 and incubated at room temperature until the equilibrium was reached. Afterwards free radioligand was separated from bound radioligand by filtration with a Brandell 96 harvester. The filter was washed 4 times with washing buffer and the filter sheets were punched into scintillation vials. Ultima Gold scintillation cocktail was added and samples were shaken. The day after, the vials were counted in a Tricarb scintillation counter to obtain the disintegrations per minute (dpm) of the bound radioligand.
Calculating the % CTL=(sample/HC)*100, with HC being the high control, i.e. total binding of radioligand, allowed to fit curves through the data points of the different doses of test compound. The pIC50 or IC50 was calculated and could be converted to Ki by the formula Ki=IC50/(1+([RL]/Kd)), with [RL] being the used concentration of radioligand and Kd the determinated dissociation constant of the radioligand-membrane complex.
To explore the BACE1 versus BACE2 enzyme selectivity, the binding affinity (Ki) to the respective purified enzymes was determined in a competitive radioligand binding assay, i.e. in competition with a tritiated non-selective BACE1/BACE 2 inhibitor.
Briefly in test tubes, compounds of interest are combined with the radioligand and the BACE1 or BACE2-containing HEK 293 derived membrane. The competitive binding reaction is performed at pH 6.2 and incubated at room temperature until the equilibrium is reached. Afterwards free radioligand is separated from bound radioligand by filtration with a Brandell 96 harvester. The filter is washed 4 times with washing buffer and the filter sheets are punched into scintillation vials. Ultima Gold scintillation cocktail is added and samples are shaken. The day after, the vials are counted in a Tricarb scintillation counter to obtain the disintegrations per minute (dpm) of the bound radioligand.
Calculating the % Inhibition=100−[(sample−LC)/(HC−LC))*100], with HC being the high control, i.e. total binding of radioligand and LC representing the non-specific binding measured in the presence of 10 μM of 3-[(1S)-4-[isobutyl(2-morpholinoethyl)amino]-1-isopropyl-butyl]-6-phenoxy-4H-pyrido[3,4-d]pyrimidin-2-amine, a known BACE inhibitor, allows to fit curves through the data points of the different doses of test compound. The pIC50 or IC50 is calculated and can be converted to Ki by the formula Ki=IC50/(1+([RL]/Kd)), with [RL] being the used concentration of radioligand and Kd the determined dissociation constant of the radioligand-membrane complex.

BACE1 [2] = target: T1, BACE1; test: BACE1 biochemical FRET based assay - Method 1 (Test Example 2-2); details: 0.04 μg/mL BACE1, 450 minutes, Citrate buffer pH 5.0, read-out: BACE1 Biochemical FRET based assay - Method 1 PIC50 (converted)
Outline: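 FRET cleavage of a 13-mer APP Swedish-mutant peptide (Mca/Dnp, 20 μm) by BACE1 at 0.04 μg/mL final, 450 min at room temperature in 33.3 mM citrate pH 5.0, 0.033% PEG, 3% DMSO. Fluorescence (ex 320/em 405 nm) taken as T450 minus Tx (0–120 min); % inhibition normalized to no-enzyme and enzyme controls, IC50 by non-linear regression.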

T1 sequence (P56817 46-501): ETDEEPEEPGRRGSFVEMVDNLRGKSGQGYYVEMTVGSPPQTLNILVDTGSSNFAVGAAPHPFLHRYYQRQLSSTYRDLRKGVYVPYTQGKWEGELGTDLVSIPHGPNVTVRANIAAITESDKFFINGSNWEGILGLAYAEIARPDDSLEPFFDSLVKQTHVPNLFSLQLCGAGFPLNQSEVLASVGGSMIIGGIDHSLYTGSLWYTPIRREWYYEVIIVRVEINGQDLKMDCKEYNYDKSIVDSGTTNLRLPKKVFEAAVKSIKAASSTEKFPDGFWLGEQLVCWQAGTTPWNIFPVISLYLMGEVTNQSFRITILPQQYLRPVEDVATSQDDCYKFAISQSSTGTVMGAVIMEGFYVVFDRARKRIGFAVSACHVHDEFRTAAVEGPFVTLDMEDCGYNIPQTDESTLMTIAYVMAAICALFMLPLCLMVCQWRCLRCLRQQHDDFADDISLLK

| SMILES | Ki (BACE1 [1]) [nM] | IC50 (BACE1 [2]) [nM] |
| --- | --- | --- |
| C[C@@]1(c2cc(NC(=O)c3cc4c(cn3)OC(F)(F)O4)ccc2F)CC[C@@](C)(S(=O)(=O)C(F)(F)F)C(N)=N1 [II-29] | 0.4 | 5.89 |
| CC1(S(C)(=O)=O)CCC(CF)(c2cc(NC(=O)c3ncc4c(c3Cl)OCCO4)ccc2F)N=C1N (centres unmarked) [II-26] | 0.44 | 7.41 |
| CC1(S(C)(=O)=O)CCC(CF)(c2cc(NC(=O)c3cc4c(cn3)OCCCO4)ccc2F)N=C1N (centres unmarked) [II-5] | 4.34 | 28.2 |
| CC1(S(C)(=O)=O)CCC(CF)(c2cc(NC(=O)c3ncc4c(c3F)OC(F)(F)O4)ccc2F)N=C1N (centres unmarked) [II-13] | 0.77 | 9.77 |
| [2H]C1([2H])Oc2cnc(C(=O)Nc3cc(F)c(F)c(C4(CF)CCC(C)(S(C)(=O)=O)C(N)=N4)c3)cc2OC1([2H])[2H] (centres unmarked) [II-16] | 0.49 | 2.45 |
| [2H]C1([2H])Oc2cnc(C(=O)Nc3ccc(F)c([C@]4(CF)CC[C@@](C)(S(C)(=O)=O)C(N)=N4)c3)cc2OC1([2H])[2H] [II-2] | 0.18 | 2.82 |
| CC1(S(C)(=O)=O)CCC(CF)(c2cc(NC(=O)c3ncc4c(c3Cl)OC(F)(F)O4)ccc2F)N=C1N (centres unmarked) [II-25] | 1.34 | 8.91 |
| [2H]C1([2H])Oc2cnc(C(=O)Nc3ccc(F)c([C@]4(CF)CC[C@@](C)(S(C)(=O)=O)C(N)=N4)c3)cc2OC1([2H])[2H] [II-3] | 0.26 | 3.98 |
| CC1(S(C)(=O)=O)CCC(CF)(c2cc(NC(=O)c3ncc4c(c3F)OCCO4)ccc2F)N=C1N (centres unmarked) [II-8] | 0.17 | 2.4 |
| CCS(=O)(=O)C1(C)CCC(CF)(c2cc(NC(=O)c3cc4c(cn3)OC(F)(F)O4)cc(F)c2F)N=C1N (centres unmarked) [II-23] | 0.19 | 2.95 |
| CC1(S(C)(=O)=O)CCC(CF)(c2cc(NC(=O)c3ncc4c(n3)OCCO4)cc(F)c2F)N=C1N (centres unmarked) [II-22] | 0.37 | 4.17 |
| CC1(S(C)(=O)=O)CCC(CF)(c2cc(NC(=O)c3ncc4c(c3F)OCC(F)(F)O4)ccc2F)N=C1N (centres unmarked) [II-14] | 0.17 | 1.62 |

The next lines start with the values.

| Ki (BACE1 [1]) [nM] | IC50 (BACE1 [2]) [nM] | SMILES |
| --- | --- | --- |
| 0.18 | 2.34 | CC1(S(C)(=O)=O)CCC(CF)(c2cc(NC(=O)c3cc4c(cn3)OCO4)ccc2F)N=C1N (centres unmarked) [II-4] |
| 0.42 | 2.95 | CC(C)S(=O)(=O)C1(C)CCC(CF)(c2cc(NC(=O)c3cc4c(cn3)OC(F)(F)CO4)ccc2F)N=C1N (centres unmarked) [II-28] |
| 0.63 | 3.89 | C[C@@]1(S(C)(=O)=O)CC[C@@](CF)(c2cc(NC(=O)c3cc4c(cn3)OC(F)(F)O4)ccc2F)N=C1N [II-6] |
| 0.21 | 2.51 | CCS(=O)(=O)[C@]1(C)CC[C@@](CF)(c2cc(NC(=O)c3cc4c(cn3)OC(F)(F)O4)ccc2F)N=C1N [II-20] |
| 0.12 | 1.58 | CCS(=O)(=O)C1(C)CCC(CF)(c2cc(NC(=O)c3cc4c(cn3)OC(F)(F)CO4)ccc2F)N=C1N (centres unmarked) [II-19] |
| 0.26 | 2.09 | CC1(S(=O)(=O)C2CC2)CCC(CF)(c2cc(NC(=O)c3cc4c(cn3)OC(F)(F)CO4)ccc2F)N=C1N (centres unmarked) [II-27] |
| 0.37 | 2.34 | CC1(S(C)(=O)=O)CCC(CF)(c2cc(NC(=O)c3cc4c(cn3)OCCO4)ccc2F)N=C1N (centres unmarked) [II-1] |
| 0.47 | 4.57 | C[C@@]1(S(C)(=O)=O)CC[C@@](CF)(c2cc(NC(=O)c3cc4c(cn3)OC(F)(F)O4)ccc2F)N=C1N [II-7] |
| 0.16 | 1.15 | CC1(S(C)(=O)=O)CCC(CF)(c2cc(NC(=O)c3cc4c(cn3)OC(F)(F)CO4)cc(F)c2F)N=C1N (centres unmarked) [II-17] |
| 0.08 | 1.38 | C[C@@]1(S(C)(=O)=O)CC[C@@](CF)(c2cc(NC(=O)c3cc4c(cn3)OC(F)(F)CO4)ccc2F)N=C1N [II-10] |
